These results are taken from PMC6099615, “Anti-glycation, Carbonyl Trapping and Anti-inflammatory Activities of Chrysin Derivatives” (Molecules : A Journal of Synthetic Chemistry and Natural …, 2018).

Series [1] in a line: Water solubility analysis. In kind it is physicochemical. Particulars: for solubility at 1 h: thermodynamic from solid, distilled water, 37 °C, sonication 1 h. As for the experimental part: CS and derivatives were dissolved in distilled water and incubated at 37 °C with sonication for 1 h to maximize solubility. After sonication, undissolved samples were eliminated by centrifugation (7000× g, 37 °C, 5 min). The supernatants were diluted in methanol and filtered through a 0.45 μm disposable syringe filter (Advantec, Dublin, CA, USA) to analyze the concentration of the samples using HPLC analysis.

For the next series, the system named is AGE formation. The series is described as follows: Bovine serum albumin-methylglyoxal assay on AGE formation. Format: biochemical. Particulars: for pIC50: BSA-methylglyoxal, 37 °C, 48 h. As to the method:
Bovine serum albumin (50 mg/mL) was incubated at 37 °C for 48 h with methylglyoxal (100 mM) in sodium phosphate buffer (0.1 M, pH 7.4) containing 0.2 g/L NaN3 in the presence of various concentrations of the compounds (including a control).
(§1) This test was used to evaluate the ability of samples to inhibit cross-linking of the GK peptide in the presence of D-ribose using the method described by Hwang et al. The GK peptide (26.7 mg/mL) was incubated with D-ribose (200 mg/mL) in sodium phosphate buffer (0.5 M, pH 7.4) containing 0.2 g/L NaN3 under sterile conditions at 37 °C for 72 h. […] All reagents and samples were sterilized by filtration through […] membrane filters. The fluorescence intensity was measured at an excitation wavelength of 355 nm and an emission wavelength of 460 nm with a Luminescence spectrometer LS50B (Perkin-Elmer Ltd., Buckinghamshire, England). AG was used as a positive control.

In a further series the test system is AGEs cross-linking. As to the kind of experiment: N-acetyl-glycyl-lysine-methyl ester D-ribose assay on AGE cross-linking. Conditions: for pIC50: GK peptide-D-ribose, 37 °C, 72 h. In kind it is biochemical. As for the experimental part: as §1
The subject of series [2] is Amadori compound formation. As to the kind of experiment: Hemoglobin-δ-gluconolactone assay of Amadori compound formation. Particulars: for pIC50: early stage of AGE formation; for inhibitory activity on Amadori compound formation, fold higher than positive control AG: relative to Aminoguanidine hydrochloride (IC50 = 109.74 μM). In kind it is biochemical.
Series [3] can be described thus: MGO trapping capacity by HPLC (kinetic study of MGO-conjugated adducts). As for the experimental part:
[…] The incubated mixture was filtered using a Microcon YM-10 centrifugal filter unit by centrifugation at 5167× g for 30 min at 4 °C. The filtrate was subsequently analyzed by high-performance liquid chromatography (HPLC) using the methods mentioned in the HPLC analysis section. The samples were then stored at −80 °C for further use.
HPLC was performed on an Agilent1100 series system equipped with a diode-array detector (DAD; Agilent, Sunnyvale, CA, USA) consisting of a vacuum degasser (G1322A), a quaternary pump (G1311A), an auto-sampler (G1313A), a thermostat column compartment (G1316A), and a DAD (G1315B). […] Sample injection volume was 10 μL. The samples were eluted with acidified water (0.1% trifluoroacetic acid, A) and MeOH (B) at a flow rate of 0.7 mL/min. The optimized gradient chromatographic conditions were 5–100% B at 0–40 min; 100–5% B at 40–42 min; and isocratic 5% B at 42–45 min. The detector monitored the eluent at a wavelength of 280 nm.

The conditions of series [4]: cited from earlier work.
[5] abbreviates: chrysin:MGO 1:0.1, incubation 1 h.
The mark [6] stands for this setting: chrysin:MGO 1:0.1, incubation 3 h.
[7] abbreviates: chrysin:MGO 1:0.1, incubation 6 h.
Where [8] appears, read: chrysin:MGO 1:0.1, incubation 12 h.
Setting [9] is: chrysin:MGO 1:0.1, incubation 36 h.
The mark [10] stands for this setting: chrysin:MGO 1:0.1, incubation 48 h.
Where [11] appears, read: chrysin:MGO 1:0.5, incubation 1 h.
Where [12] appears, read: chrysin:MGO 1:0.5, incubation 3 h.
Where [13] appears, read: chrysin:MGO 1:0.5, incubation 6 h.
The mark [14] stands for this setting: chrysin:MGO 1:0.5, incubation 12 h.
Where [15] appears, read: chrysin:MGO 1:0.5, incubation 36 h.
[16] abbreviates: chrysin:MGO 1:0.5, incubation 48 h.
The mark [17] stands for this setting: chrysin:MGO 1:1, incubation 1 h.
Setting [18] is: chrysin:MGO 1:1, incubation 3 h.
The mark [19] stands for this setting: chrysin:MGO 1:1, incubation 6 h.
Where [20] appears, read: chrysin:MGO 1:1, incubation 12 h.
Where [21] appears, read: chrysin:MGO 1:1, incubation 36 h.
The mark [22] stands for this setting: chrysin:MGO 1:1, incubation 48 h.
The mark [23] stands for this setting: chrysin:MGO 1:5, incubation 1 h.
Where [24] appears, read: chrysin:MGO 1:5, incubation 3 h.
Setting [25] is: chrysin:MGO 1:5, incubation 6 h.
The mark [26] stands for this setting: chrysin:MGO 1:5, incubation 12 h.
Setting [27] is: chrysin:MGO 1:5, incubation 36 h.
[28] abbreviates: chrysin:MGO 1:5, incubation 48 h.
Where [29] appears, read: chrysin:MGO 1:10, incubation 1 h.
[30] abbreviates: chrysin:MGO 1:10, incubation 3 h.
Setting [31] is: chrysin:MGO 1:10, incubation 6 h.
Where [32] appears, read: chrysin:MGO 1:10, incubation 12 h.
Setting [33] is: chrysin:MGO 1:10, incubation 12 h, listed as CS.
Setting [34] is: chrysin:MGO 1:10, incubation 36 h.
Setting [35] is: chrysin:MGO 1:10, incubation 48 h.
[36] abbreviates: chrysin:MGO 1:10, incubation 48 h, listed as CS.
[37] abbreviates: chrysin:MGO 1:10, incubation 48 h, listed as chrysin.

pIC50: −log10 of the molar value. Converted amounts (≈) assume the structure as drawn. Structures can show the parent of a compound that is named as a salt. Where two headings read alike, the source gives them in different places. Marks after values point to notes of the source that are not given here.

One may read the solubility as the dissolved amount per volume that the medium holds. Low values mean a poorly soluble substance, high ones a readily soluble substance. By pIC50 is commonly meant the negative decadic logarithm of the IC50, by convention in mol/L. `COc1cc(OC)c2c(=O)cc(-c3ccccc3)oc2c1` [5,7-Di-O-methoxychrysin, 5,7-di-O-methoxychrysin] registered a solubility at 1 h in series [1] of 11 µM (≈ 3.11 µg/mL). For the same compound, the negative logarithm of the IC50 (pIC50) with AGE formation was 4.38; in the series with AGEs cross-linking, 4.40; in series [2] it was 5.10. Besides, in series [2], the “inhibitory activity on Amadori compound formation, fold higher than positive control AG” value is on record as 13.92 fold.
Turning to `CC(=O)Oc1cc(O)c2c(=O)cc(-c3ccccc3)oc2c1` [7-O-Acetylchrysin, 7-O-acetylchrysin], the “water solubility, fold higher than CS” value in series [1] (relative to CS) came out at 2.87 fold. The solubility at 1 h in series [1] is 86 µM (≈ 25.5 µg/mL). Moreover, the figures for the pIC50 (with AGE formation; in the series with AGEs cross-linking; in series [2]) were 4.67, less than 2.70 and 4.63, respectively. For the same compound, in series [2], the “inhibitory activity on Amadori compound formation, fold higher than positive control AG” value is on record as 4.66 fold.
Consider `COc1cc(O)c2c(=O)cc(-c3ccccc3)oc2c1` [7-O-Methoxychrysin, 7-O-methoxychrysin], for which the solubility at 1 h in series [1] came to 10 µM (≈ 2.68 µg/mL). The pIC50 is less than 3.70 in the series with AGE formation, less than 2.70 in the series on AGEs cross-linking and less than 1.51 in series [2]. In addition, in series [2] (up to a concentration of 10.0 mg/mL), the “inhibitory activity on Amadori compound formation” value is given as “no inhibitory activities”.
The compound `CC(C)=CCOc1cc(O)c2c(=O)cc(-c3ccccc3)oc2c1` [7-O-Prenylchrysin, 7-O-prenylchrysin] displayed a solubility at 1 h in series [1] of 9 µM (≈ 2.9 µg/mL).
`N=C(N)NN` [Aminoguanidine, Aminoguanidine hydrochloride, reference compound]: the pIC50 in the series on AGE formation was 3.86; in the series on AGEs cross-linking, 2.72; in series [2], 3.96.
As for `O=c1cc(-c2ccccc2)oc2cc(O)cc(O)c12` [Chrysin, 5,7-dihydroxyflavone], the concentration in solution in series [1] (solubility at 1 h) was 30 µM (≈ 7.63 µg/mL). Besides, the “HPLC area percentage of chrysin-di-MGO adduct” value turned out to be 0.0% in series [3] (setting [5]); 0.1% in series [3] (setting [6]); 0.1% in series [3] (setting [7]); 0.2% in series [3] (setting [8]); 1.1% in series [3] (setting [9]); 2.9% in series [3] (setting [10]). Moreover, the “HPLC area percentage of chrysin-di-MGO adduct” value in series [3] (setting [11]) was 0.0%; in series [3] (setting [12]) it was 0.2%; in series [3] (setting [13]), 0.5%; in series [3] (setting [14]) it was 1.1%; in series [3] (setting [15]), 4.1%; in series [3] (setting [16]) it was 7.6%. Besides, the “HPLC area percentage of chrysin-di-MGO adduct” value is 0.1% in series [3] (setting [17]); 0.3% in series [3] (setting [18]); 0.7% in series [3] (setting [19]); 1.5% in series [3] (setting [20]); 6.4% in series [3] (setting [21]); 11.6% in series [3] (setting [22]). The “HPLC area percentage of chrysin-di-MGO adduct” value in series [3] (setting [23]) turned out to be 0.3%; in series [3] (setting [24]) it was 0.8%; in series [3] (setting [25]), 1.7%; in series [3] (setting [26]), 3.6%; in series [3] (setting [27]), 15.9%; in series [3] (setting [28]) it was 25.2%. Moreover, the “HPLC area percentage of chrysin-di-MGO adduct” value in series [3] (setting [29]) was found to be 0.5%; in series [3] (setting [30]) it was 1.0%; in series [3] (setting [31]), 1.9%; in series [3] (setting [32]), 5.7%; in series [3] (setting [33]), 6%; in series [3] (setting [34]) it was 17.3%. The “HPLC area percentage of chrysin-di-MGO adduct” value in series [3] (setting [35]) is recorded as 29.7%; in series [3] (setting [36]), 30%; in series [3] (setting [37]), 29.69%. Also, the “HPLC area percentage of chrysin-mono-MGO adduct” value in series [3] (setting [5]) stood at 1.7%; in series [3] (setting [6]) it was 2.9%; in series [3] (setting [7]), 4.0%; in series [3] (setting [8]), 7.6%; in series [3] (chrysin:MGO 1:0.1, incubation 12 h, listed as CS), 8%; in series [3] (setting [9]), 19.9%. Also, the “HPLC area percentage of chrysin-mono-MGO adduct” value in series [3] (setting [10]) turned out to be 27.2%; in series [3] (setting [11]), 4.1%; in series [3] (setting [12]), 7.7%; in series [3] (setting [13]), 13.1%; in series [3] (setting [14]) it was 21.4%; in series [3] (chrysin:MGO 1:0.5, incubation 12 h, listed as CS) it was 21%. Further, the “HPLC area percentage of chrysin-mono-MGO adduct” value in series [3] (setting [15]) amounted to 36.5%; in series [3] (setting [16]) it was 45.8%; in series [3] (setting [17]), 5.0%; in series [3] (setting [18]), 10.8%; in series [3] (setting [19]), 18.1%; in series [3] (setting [20]) it was 29.5%. Besides, the “HPLC area percentage of chrysin-mono-MGO adduct” value in series [3] (chrysin:MGO 1:1, incubation 12 h, listed as CS) is listed as 30%; in series [3] (setting [21]), 45.1%; in series [3] (setting [22]) it was 55.0%; in series [3] (setting [23]), 12.4%; in series [3] (setting [24]) it was 19.0%; in series [3] (setting [25]) it was 26.7%. For the same compound, the “HPLC area percentage of chrysin-mono-MGO adduct” value in series [3] (setting [26]) is 35.6%; in series [3] (chrysin:MGO 1:5, incubation 12 h, listed as CS), 36%; in series [3] (setting [27]), 49.1%; in series [3] (setting [28]), 57.5%; in series [3] (setting [29]) it was 11.9 ^a %; in series [3] (setting [30]), 21.0%. The “HPLC area percentage of chrysin-mono-MGO adduct” value in series [3] (setting [31]) came out at 31.9%; in series [3] (setting [32]) it was 42.1%; in series [3] (setting [33]) it was 42%; in series [3] (setting [34]) it was 57.4%; in series [3] (setting [35]), 63.9%; in series [3] (setting [36]), 64%. Further, the “HPLC area percentage of chrysin-mono-MGO adduct” value in series [3] (setting [37]) was found to be 63.86%. For the same compound, the “CS–di MGO adduct formation across ratios” value in series [3] (ratios shown in Table 2B) is 0.2–3%. In addition, the pIC50 in the series on AGE formation was 4.60; in the series with AGEs cross-linking it was less than 2.70; in series [2] it was 4.76. The “activity against AGE formation, fold higher than AG” value in the series on AGE formation (relative to AG (IC50 = 136.79 μM)) is on record as 5.48 fold. For the same compound, the “inhibitory activity against AGEs cross-linking” value with AGEs cross-linking (at a concentration of 10.0 mg/mL) is “no inhibitory activities”. Besides, the “inhibitory activity on Amadori compound formation, fold higher than positive control AG” value in series [2] was 6.30 fold.
For orientation: bioavailability means the share of a dose that reaches the circulation, judged against a reference dose that is usually intravenous. For `C[N+](C)(C)C[C@H](O)CC(=O)[O-]` [L-carnitine], the bioavailability in series [4] (oral administration) is reported as 14–18%.
Take `CC(=O)O[C@H](CC(=O)[O-])C[N+](C)(C)C` [acetyl-L-carnitine]: the bioavailability in series [4] (in vivo, po) was 43%.
